Test results published in paper PMC6155273, “Antiprotozoal Activity of Triazole Derivatives of Dehydroabietic Acid and Oleanolic Acid” (Molecules : A Journal of Synthetic Chemistry and Natural …, 2017).
In brackets after ≈: the same amount, converted by molar mass. Like-named read-outs stand apart in the source and are kept apart here.

Columns and labels:
T. cruzi epimastigotes = test: Antiepimastigote activity, T. cruzi CL-B5 lacZ (CPRG); type: cell-based, Trypanosoma cruzi; conditions: clone CL-B5, 72 h; for IC50: Trypanosoma cruzi
Procedure: For in vitro studies of T. cruzi, the clone CL-B5 was used (donated by Faculty of Pharmacy, Complutense University, Madrid, Spain). Parasites were stably transfected with the Escherichia coli β-galactosidase gene (lacZ). Epimastigotes were grown at 28 °C in liver infusion tryptose broth (Difco, Detroit, MI, USA) with 10% fetal bovine serum (FBS) (Gibco, Carlsbad, CA, USA), penicillin (Ern S.A., Barcelona, Spain), and streptomycin (Reig Jofré S.A., Barcelona, Spain), as described previously, and harvested during the exponential growth phase. Briefly, the screening assay was performed in 96-well microplates (Sarstedt, Inc., Newton, NC, USA) with cultures that had not reached the stationary phase. Epimastigotes were seeded at 2 × 10^5 parasites/mL in 200 µL growth media. The plates were then incubated with the respective compounds at 28 °C for 72 h; afterwards, 50 µL of chlorophenol red-β-D-galactopyranoside (CPRG) solution was added, resulting in a final concentration of 200 µM. The plates were incubated at 37 °C for an additional 4 h and then read at 595 nm. Each concentration was tested in triplicate. The efficacy of each compound was estimated by calculating the IC50 values. These values were calculated by the sigmoidal dose–response curve adjustment using the statistical software program Graph-Pad Prims 3.0 (GraphPhad, San Diego, CA, USA). Benznidazole was used as the reference drug.

[1] = tested on: L. braziliensis promastigotes; test: Leishmanicidal activity on L. braziliensis promastigotes (resazurin); type: cell-based, Leishmania braziliensis; conditions: 48 h; for IC50: Leishmania braziliensis, read-out: Leishmanicidal Activity on Promastigotes, L. braziliensis, IC50
Procedure: (§1) Culture of L. braziliensis (MHOM/BR/75/M2904), and L. infantum (MHOM/FR/91/LEM2259V) was obtained from the Facultad de Farmacia (Universidad Complutense de, Madrid, Spain). The maintenance of the strains, the form of cultivation, and the isolation of shape promastigota were performed following the procedures described by Roldos et al.. The promastigotes were grown at 22 °C in Schneider’s Drosophila medium supplemented with 20% FBS. The assay was performed using a modification of a previous method. Promastigotes (2 × 10^6 parasites/well) were cultured in 96-well plastic plates. Compounds were dissolved in dimethylsulfoxide (DMSO). Different dilutions of the compounds with a final volume up to 200 µL were added. After 48 h at 26 °C, 20 µL of a 2 mM resazurin solution was added, and the oxidation-reduction was quantified at 570 and 600 nm. The solution of resazurin was prepared at 2.5 mM in phosphate buffered solution (PBS), pH 7.4, and filtered through 0.22 µm prior to use. All tests were carried out in triplicate. Resazurin sodium salt was obtained from Sigma-Aldrich (St. Louis, MO, USA) and stored at 4 °C protected from light. The efficacy of each compound was estimated by calculating the IC50 values.

[2] = tested on: L. infantum promastigotes; test: Leishmanicidal activity on L. infantum promastigotes (resazurin); type: cell-based, Leishmania infantum; conditions: 48 h; for IC50: Leishmania infantum, read-out: Leishmanicidal Activity on Promastigotes, L. infantum, IC50
Procedure: as §1

[3] = Cytotoxicity on NCTC-Clone 929 fibroblasts (resazurin); type: cell-based; conditions: mouse
Procedure: The cell line used was NCTC-Clone 929, which was grown in Minimal Essential Medium (Sigma) supplemented with 10% heat-inactivated FBS, penicillin G (100 U/mL), and streptomycin (100 µg/mL). Cell cultures were maintained at 37 °C in a humidified 5% CO2 atmosphere. The procedure for cell viability measurement was evaluated with resazurin by a colorimetric method. The cells were plated in 96-microtiter plates at 3 × 10^4 cells per well in a 100 µL growth medium. The cells were grown overnight at 37 °C, 5% CO2. Thereafter, the medium was removed and the compounds were added in a 200 µL medium for 24 h. After incubation, 20 µL of a 2 mM resazurin solution was added to each well. The plates were incubated for 3 h to allow optimal oxidation-reduction. The reduction of resazurin was determined by dual wavelength absorbance measurement at 490 and 595 nm. Background was subtracted. Each concentration was assayed three times. Medium and drug controls were used in each test as blanks.

SMILES	IC50 (T. cruzi epimastigotes) [µg/mL]	IC50 [1] [µg/mL]	IC50 [2] [µg/mL]	IC50 at 24 h [3] [µg/mL]	IC50 ([1]; promastigotes) [µg/mL]	IC50 ([2]; promastigotes) [µg/mL]	Antiepimastigote Activity of T. cruzi, IC50 (T. cruzi epimastigotes) [µg/mL]	Leishmanicidal Activity on Promastigotes, L. braziliensis, IC50 ([1]; promastigotes) [µg/mL]	Leishmanicidal Activity on Promastigotes, L. infantum, IC50 ([2]; promastigotes) [µg/mL]
CC1(C)CC[C@]2(C(=O)O)CC[C@]3(C)C(=CCC4[C@@]5(C)CC[C@H](OC(=O)CCCc6cn(CSc7ccccc7)nn6)C(C)(C)C5CC[C@]43C)[C@@H]2C1 (some centres unmarked) [Compound 33]	> 256	> 256	> 256	–	–	–	–	–	–
COC(=O)[C@]12CCC(C)(C)C[C@H]1C1=CCC3[C@@]4(C)CC[C@H](OC(=O)CCc5cn(CSc6ccccc6)nn5)C(C)(C)C4CC[C@@]3(C)[C@]1(C)CC2 (some centres unmarked) [Compound 30]	> 256	> 256	> 256	> 256	–	–	–	–	–
CC(C)c1ccc2c(c1)CCC1[C@](C)(COC(=O)CCCCc3cn(Cc4cccc(Cl)c4)nn3)CCC[C@]21C (some centres unmarked) [Compound 14]	> 256	> 256	> 256	> 256	–	–	–	–	–
CC(C)c1ccc2c(c1)CCC1[C@](C)(C(=O)OCc3cn(-c4ccccc4)nn3)CCC[C@]21C (some centres unmarked) [Compound 1]	46 (≈ 101 µM)	–	–	> 256	53 (≈ 116 µM)	60 (≈ 131 µM)	–	–	–
CC1(C)CC[C@]2(C(=O)O)CC[C@]3(C)C(=CCC4[C@@]5(C)CC[C@H](OC(=O)CCc6cn(Cc7ccc(Cl)cc7)nn6)C(C)(C)C5CC[C@]43C)[C@@H]2C1 (some centres unmarked) [Compound 25]	> 256	> 256	> 256	> 256	–	–	–	–	–
CC(C)c1ccc2c(c1)CC[C@H]1[C@](C)(C(=O)O)CCC[C@]21C [DHA, Dehydroabietic acid]	212 (≈ 706 µM)	–	–	–	44 (≈ 146 µM)	72 (≈ 240 µM)	–	–	–
Cc1ccc(S(=O)(=O)n2cc(CCC(=O)OC[C@]3(C)CCC[C@]4(C)c5ccc(C(C)C)cc5CCC34)nn2)cc1 (some centres unmarked) [Compound 15]	69 (≈ 122 µM)	–	–	232 (≈ 412 µM)	89 (≈ 158 µM)	53 (≈ 94 µM)	–	–	–
CC(C)c1ccc2c(c1)CCC1[C@](C)(COC(=O)CCc3cn(Cc4cccc(Cl)c4)nn3)CCC[C@]21C (some centres unmarked) [Compound 13]	> 256	–	> 256	> 256	242 (≈ 453 µM)	–	–	–	–
COC(=O)[C@]12CCC(C)(C)C[C@H]1C1=CCC3[C@@]4(C)CC[C@H](OC(=O)CCc5cn(-c6ccccc6)nn5)C(C)(C)C4CC[C@@]3(C)[C@]1(C)CC2 (some centres unmarked) [Compound 22]	> 256	> 256	> 256	> 256	–	–	–	–	–
C#CCCCC(=O)O[C@H]1CC[C@@]2(C)C(CC[C@]3(C)C2CC=C2[C@@H]4CC(C)(C)CC[C@]4(C(=O)OC)CC[C@]23C)C1(C)C (some centres unmarked) [Compound 20]	> 256	> 256	> 256	> 256	–	–	–	–	–
C#CCCCC(=O)O[C@H]1CC[C@@]2(C)C(CC[C@]3(C)C2CC=C2[C@@H]4CC(C)(C)CC[C@]4(C(=O)O)CC[C@]23C)C1(C)C (some centres unmarked) [Compound 19]	> 256	–	–	> 256	109 (≈ 198 µM)	155 (≈ 281 µM)	–	–	–
COC(=O)[C@]12CCC(C)(C)C[C@H]1C1=CCC3[C@@]4(C)CC[C@H](OC(=O)CCc5cn(Cc6ccc(Cl)cc6)nn5)C(C)(C)C4CC[C@@]3(C)[C@]1(C)CC2 (some centres unmarked) [Compound 26]	> 256	> 256	> 256	> 256	–	–	–	–	–
CC(C)c1ccc2c(c1)CCC1[C@](C)(COC(=O)CCCCc3cn(Cc4ccccc4)nn3)CCC[C@]21C (some centres unmarked) [Compound 8]	> 256	> 256	> 256	> 256	–	–	–	–	–
CC(C)c1ccc2c(c1)CCC1[C@](C)(COC(=O)CCc3cn(-c4ccccc4)nn3)CCC[C@]21C (some centres unmarked) [Compound 5]	223 (≈ 459 µM)	–	–	> 256	218 (≈ 449 µM)	193 (≈ 397 µM)	–	–	–
COC(=O)[C@]12CCC(C)(C)C[C@H]1C1=CCC3[C@@]4(C)CC[C@H](OC(=O)CCc5cn(S(=O)(=O)c6ccc(C)cc6)nn5)C(C)(C)C4CC[C@@]3(C)[C@]1(C)CC2 (some centres unmarked) [Compound 28]	61 (≈ 81.5 µM)	–	–	> 256	> 256	> 256	–	–	–
COc1ccc(-n2cc(CCC(=O)OC[C@]3(C)CCC[C@]4(C)c5ccc(C(C)C)cc5CCC34)nn2)cc1 (some centres unmarked) [Compound 11]	> 256	> 256	> 256	> 256	–	–	–	–	–
CC(C)c1ccc2c(c1)CCC1[C@](C)(COC(=O)CCCCc3cn(-c4ccccc4)nn3)CCC[C@]21C (some centres unmarked) [Compound 6]	> 256	> 256	> 256	> 256	–	–	–	–	–
CC(C)c1ccc2c(c1)CCC1[C@](C)(C(=O)OCc3cn(CSc4ccccc4)nn3)CCC[C@]21C (some centres unmarked) [Compound 3]	> 256	> 256	> 256	> 256	–	–	–	–	–
C#CCCC(=O)O[C@H]1CC[C@@]2(C)C(CC[C@]3(C)C2CC=C2[C@@H]4CC(C)(C)CC[C@]4(C(=O)OC)CC[C@]23C)C1(C)C (some centres unmarked) [Compound 18]	> 256	> 256	> 256	> 256	–	–	–	–	–
CC(C)c1ccc2c(c1)CC[C@H]1[C@](C)(CO)CCC[C@]21C [Dehydroabietinol, dehydroabietinol, reference compound]	–	–	–	–	–	–	66	63	40
CC(C)c1ccc2c(c1)CCC1[C@](C)(COC(=O)CCCCc3cn(CSc4ccccc4)nn3)CCC[C@]21C (some centres unmarked) [Compound 10]	> 256	> 256	> 256	> 256	–	–	–	–	–
N=C(N)c1ccc(OCCCCCOc2ccc(C(=N)N)cc2)cc1 [Pentamidine, reference compound]	–	–	–	–	3.3 (≈ 9.69 µM)	3.3 (≈ 9.69 µM)	–	–	–
COC(=O)[C@]12CCC(C)(C)C[C@H]1C1=CCC3[C@@]4(C)CC[C@H](OC(=O)CCCc5cn(CSc6ccccc6)nn5)C(C)(C)C4CC[C@@]3(C)[C@]1(C)CC2 (some centres unmarked) [Compound 34]	> 256	> 256	> 256	–	–	–	–	–	–
COC(=O)[C@]12CCC(C)(C)C[C@H]1C1=CCC3[C@@]4(C)CC[C@H](OC(=O)CCCc5cn(S(=O)(=O)c6ccc(C)cc6)nn5)C(C)(C)C4CC[C@@]3(C)[C@]1(C)CC2 (some centres unmarked) [Compound 32]	> 256	> 256	> 256	–	–	–	–	–	–
